Consider four molecules from patent US20230286973A1, “PROTEIN SECRETION INHIBITORS” (KEZAR LIFE SCIENCES, priority 2020, published 2023).

Bounds are passed on as bounds.

The test system of data set [1] is HER3-ss+4aa/Gaussia Luciferase. Nature of the data set: Dox-Induced Her3-ss-Gluc Assay. To be noted: 24 hr Dox induction; 293FRT/TO cells; read-out: 24 hr Dox Inducible Her3(ss + 4)Gluc 293FRT/TO: Mean IC50. The data set is classed as cell-based. The gist of the method: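 Compounds were diluted in DMSO/media containing doxycycline. They were added to Flp-In 293 T-REx cells plated the previous day, then incubated at 37 °C under 5% CO2. These cells stably express, under T-REx control, Gaussia luciferase fused to the HER3 signal sequence plus 4 amino acids.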

Data set [2] in a line: Liver Microsome Stability Assay (rat). To be noted: rat liver microsomes, with NADPH, 1.0 uM compound.
Procedure: (§1) Stability of a compound was assessed in the presence of liver microsomes from various sources—mouse, rat, monkey and human liver microsomes. 1.0 uM compound, 0.4% DMSO in 0.1 M Potassium Phosphate with 1.0 mg/mL liver microsomes, were incubated at 37° C. with or without 1 mM NADPH. The samples were quenched at 0, and 30 minutes.
The nature of data set [3]: Liver Microsome Stability Assay (human). To be noted: human liver microsomes, with NADPH, 1.0 uM compound.
Procedure: as §1
Data set [4] has as its system IL-2-FL/Gaussia Luciferase. Description: Dox Induced IL2-FL-Gluc Assay. The data set is classed as cell-based. To be noted: for IC50: 24 hr Dox induction, 293FRT/TO cells, read-out: 24 hr Dox Inducible IL2FLGluc 293FRT/TO: Mean IC50; for 24 hr Dox Inducible IL2FLGluc 293FRT/TO: IL2/PD1: ratio of IL2FLGluc IC50 to PD1ssGluc IC50. A digest of the protocol: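 Compounds in DMSO/medium with doxycycline were applied to a 293 T-REx stable line expressing an IL-2 (aa 1-153)–Gaussia luciferase fusion under tetracycline-regulated control, cells seeded one day earlier; incubation at 37 °C, 5% CO2. Structures drawn without stereochemistry were tested as stereoisomer mixtures.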

Data set [5] in a line: Liver Microsome Stability Assay (mouse). The note with it: mouse liver microsomes, with NADPH, 1.0 uM compound.
Procedure: as §1
In data set [6] the test system is PD1-ss+10aa/Gaussia Luciferase. Nature of the data set: Dox-Induced PD1-ss-Gluc Assay. The data set is classed as cell-based. The note with it: 24 hr Dox induction; 293FRT/TO cells; read-out: 24 hr Dox Inducible PD1ssGluc 293FRT/TO: Mean IC50. A digest of the protocol:
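Flp-In 293 T-REx, stable line; Tet-regulated PD1-ss+10aa fused to Gaussia luciferase; plated day prior; cpd + doxycycline in DMSO/media; 37 °C, 5% CO2.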

A short description of data set [7]: Liver Microsome Stability Assay (monkey). To be noted: monkey liver microsomes, with NADPH, 1.0 uM compound.
Procedure: as §1
For data set [8], the system named is multiple myeloma cell line U266B1. Nature of the data set: U266 Cell Viability Assay. It is filed as cell-based, human. The note with it: Homo sapiens, U-266, 48 h, U266B1 cells, Celltiter-Glo. The gist of the method:
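CellTiter-Glo luminescence was read after a 48 h compound exposure (37 °C, 5% CO2) of human U266B1 myeloma cells grown in 10% FBS-supplemented RPMI 1640. Data for structures shown without defined stereochemistry refer to stereoisomer mixtures.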

The subject of data set [9] is TNFα-FL/Gaussia Luciferase. Description: Dox Induced TNFα-FL-Gluc Assay. The data set is classed as cell-based. To be noted: for IC50: 24 hr Dox induction, 293FRT/TO cells, read-out: 24 hr Dox Inducible TNFaFLGluc 293FRT/TO: Mean IC50; for 24 hr Dox Inducible TNFaFLGluc 293FRT/TO: TNF/PD1: ratio of TNFaFLGluc IC50 to PD1ssGluc IC50. A digest of the protocol: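 Compound was added with doxycycline to cells plated a day earlier, incubating at 37° C under 5% CO2. The reporter line is 293 T-REx expressing a TNFα (1-233)–Gaussia luciferase fusion under tetracycline-regulated control.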

Data set [10] deals with multiple myeloma cell line NCI-H929. Nature of the data set: H929 Cell Viability Assay. The data set is classed as cell-based, human. To be noted: Homo sapiens, NCI-H929, 48 h, NCI-H929 cells, Celltiter-Glo. A digest of the protocol: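 Luminescent CellTiter-Glo read-out of viability after a 48 h exposure (37° C, 5% CO2) of NCI-H929 myeloma cells to compound dilutions in RPMI 1640 plus 10% FBS. Data for structures drawn without stereochemistry refer to stereoisomer mixtures.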

As for `CC(=O)Nc1ccc(N2CCC[C@@H]2c2csc(NC(=O)c3cc(C)cn3Cc3ccnc(F)c3)n2)cc1` [Compound A164, (R)-N-(4-(1-(4-acetamidophenyl)pyrrolidin-2-yl)thiazol-2-yl)-1-((2-fluoropyridin-4-yl)methyl)-4-methyl-1H-pyrrole-2-carboxamide], the IC50 worked out at 17.3 nM in data set [1], 19.1 nM in data set [4], 7.95 nM in data set [6] and 148 nM in data set [9]. For the same molecule, the “Liver Microsome Stability (Multiple Species): Rat - % Remaining after 30 min w/NADPH” value in data set [2] came to 19.4%. In data set [3], the “Liver Microsome Stability (Multiple Species): Human - % Remaining after 30 min w/NADPH” value amounted to 36.5%. In addition, the “24 hr Dox Inducible IL2FLGluc 293FRT/TO: IL2/PD1” value in [4] was 2.4. Moreover, the “Liver Microsome Stability (Multiple Species): Mouse - % Remaining after 30 min w/NADPH” value in data set [5] is 18.8%. For the same molecule, the “Liver Microsome Stability (Multiple Species): Monkey - % Remaining after 30 min w/NADPH” value in [7] was 32.3%. Besides, the values for the concentration giving a half-maximal response (EC50) in [8] and in data set [10] were above 25000 nM and 274 nM, respectively. The “24 hr Dox Inducible TNFaFLGluc 293FRT/TO: TNF/PD1” value in data set [9] was 18.7.

As for `CC(=O)N1CCC(Oc2ccc(N3CCC[C@@H]3c3csc(NC(=O)c4cc(C)cn4Cc4ccnc(F)c4)n3)cc2)CC1` [Compound A165, (R)-N-(4-(1-(4-((1-acetylpiperidin-4-yl)oxy)phenyl)pyrrolidin-2-yl)thiazol-2-yl)-1-((2-fluoropyridin-4-yl)methyl)-4-methyl-1H-pyrrole-2-carboxamide], the IC50 in data set [1] came out at 53 nM; in data set [4], 45.2 nM; in data set [6] it was 29.8 nM; in data set [9] it was 386 nM. For the same molecule, in data set [2], the “Liver Microsome Stability (Multiple Species): Rat - % Remaining after 30 min w/NADPH” value is on record as 59.2%. Besides, the “Liver Microsome Stability (Multiple Species): Human - % Remaining after 30 min w/NADPH” value in [3] turned out to be 42.1%. Moreover, the “24 hr Dox Inducible IL2FLGluc 293FRT/TO: IL2/PD1” value in data set [4] is reported as 1.5. For the same molecule, the “Liver Microsome Stability (Multiple Species): Mouse - % Remaining after 30 min w/NADPH” value in [5] amounted to 30.7%. In addition, the “Liver Microsome Stability (Multiple Species): Monkey - % Remaining after 30 min w/NADPH” value in [7] was determined as 47.5%. Moreover, the values for the 50% effective concentration (EC50) in [8] and in data set [10] were above 25000 nM and 867 nM, respectively. For the same molecule, the “24 hr Dox Inducible TNFaFLGluc 293FRT/TO: TNF/PD1” value in data set [9] was 13.

Consider `Cc1cc(C(=O)Nc2nc([C@H]3CCCN3c3ccc(OC4CCN(C(N)=O)CC4)cc3)cs2)n(Cc2ccnc(F)c2)c1` [Compound A166, (R)-4-(4-(2-(2-(1-((2-fluoropyridin-4-yl)methyl)-4-methyl-1H-pyrrole-2-carboxamido)thiazol-4-yl)pyrrolidin-1-yl)phenoxy)piperidine-1-carboxamide], for which the IC50 in data set [1] is 93.7 nM; in [4], 109 nM; in data set [6] it was 52.8 nM; in data set [9], 744 nM. For the same molecule, in data set [2], the “Liver Microsome Stability (Multiple Species): Rat - % Remaining after 30 min w/NADPH” value was found to be 78.7%. In data set [3], the “Liver Microsome Stability (Multiple Species): Human - % Remaining after 30 min w/NADPH” value was determined as 64.3%. In [4], the “24 hr Dox Inducible IL2FLGluc 293FRT/TO: IL2/PD1” value amounted to 2.1. The “Liver Microsome Stability (Multiple Species): Mouse - % Remaining after 30 min w/NADPH” value in [5] was 63.9%. Also, the “Liver Microsome Stability (Multiple Species): Monkey - % Remaining after 30 min w/NADPH” value in data set [7] is on record as 72.2%. The concentration giving a half-maximal response (EC50) in data set [8] was above 25000 nM; in data set [10], 2210 nM. In data set [9], the “24 hr Dox Inducible TNFaFLGluc 293FRT/TO: TNF/PD1” value amounted to 14.1.

As for `CC(C)n1cnc(-c2cccc(-c3csc(NC(=O)c4cccn4Cc4ccnc(F)c4)n3)c2)c1` [Compound A167, 1-((2-fluoropyridin-4-yl)methyl)-N-(4-(3-(1-isopropyl-1H-imidazol-4-yl)phenyl)thiazol-2-yl)-1H-pyrrole-2-carboxamide], the IC50 is 603 nM in [1], 1450 nM in data set [4], 362 nM in data set [6] and above 25000 nM in [9]. Also, the “Liver Microsome Stability (Multiple Species): Rat - % Remaining after 30 min w/NADPH” value in data set [2] was 13%. For the same molecule, the “Liver Microsome Stability (Multiple Species): Human - % Remaining after 30 min w/NADPH” value in [3] is 0.06%. In addition, the “24 hr Dox Inducible IL2FLGluc 293FRT/TO: IL2/PD1” value in data set [4] came out at 4. The “Liver Microsome Stability (Multiple Species): Mouse - % Remaining after 30 min w/NADPH” value in data set [5] is 12%. Also, the “Liver Microsome Stability (Multiple Species): Monkey - % Remaining after 30 min w/NADPH” value in data set [7] came to 0.15%. The EC50 in data set [8] and in [10] was above 25000 nM throughout. In addition, the “24 hr Dox Inducible TNFaFLGluc 293FRT/TO: TNF/PD1” value in data set [9] is listed as above 69.1.
